Source: paper PMC6979384, “Characterization of the plant homeodomain (PHD) reader family for their histone tail interactions” (Epigenetics & Chromatin, 2020)

Legend:
Experiment in all cases: Histone peptide microarray
Format in all cases: binding, human
Details in all cases: sheet "Array Heatmap"; GST-tagged reader; histone peptide array, total n = 4
AIRE (PP) = tested on: AIRE (PP)
In short: (§1)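 GST-PHD reader, 0.5 μM, probed on 293-peptide histone array (single/combinatorial PTMs); optimized array protocol; signal = mean ± SD, n = 4.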

BAZ2B = tested on: BAZ2B
In short: as §1

BPTF (PB) = tested on: BPTF (PB)
In short: as §1

CHD4 (PPCC) = tested on: CHD4 (PPCC)
In short: as §1

CHD5 (PCC) = tested on: CHD5 (PCC)
In short: as §1

CHD5 (PPCC) = tested on: CHD5 (PPCC)
In short: as §1

DIDO1 = tested on: DIDO1
In short: as §1

DPF2 (PPC2W2) = tested on: DPF2 (PPC2W2)
In short: as §1

ING1 = tested on: ING1
In short: as §1

ING2 = tested on: ING2
In short: as §1

ING3 = tested on: ING3
In short: as §1

ING4 = tested on: ING4
In short: as §1

ING5 = tested on: ING5
In short: as §1

KDM4C (TTP) = tested on: KDM4C (TTP)
In short: as §1

KDM5A (1) = tested on: KDM5A (1)
In short: as §1

KDM5A (3) = tested on: KDM5A (3)
In short: as §1

KDM5B (1) = tested on: KDM5B (1)
In short: as §1

KDM5B (3) = tested on: KDM5B (3)
In short: as §1

KDM7A = tested on: KDM7A
In short: as §1

MLL5 = tested on: MLL5
In short: as §1

MORC3 (CW) = tested on: MORC3 (CW)
In short: as §1

PHF13 = tested on: PHF13
In short: as §1

PHF21A = tested on: PHF21A
In short: as §1

PHF23 = tested on: PHF23
In short: as §1

PHF2 = tested on: PHF2
In short: as §1

PHF8 = tested on: PHF8
In short: as §1

PHRF1 (RP) = tested on: PHRF1 (RP)
In short: as §1

RAG2 = tested on: RAG2
In short: as §1

SP140L = tested on: SP140L
In short: as §1

TAF3 = tested on: TAF3
In short: as §1

TRIM66 (PB) = tested on: TRIM66 (PB)
In short: as §1

| Substance | Array Heatmap signal, AIRE (PP) (AIRE (PP)) | Array Heatmap signal, BAZ2B (BAZ2B) | Array Heatmap signal, BPTF (PB) (BPTF (PB)) | Array Heatmap signal, CHD4 (PPCC) (CHD4 (PPCC)) | Array Heatmap signal, CHD5 (PCC) (CHD5 (PCC)) | Array Heatmap signal, CHD5 (PPCC) (CHD5 (PPCC)) | Array Heatmap signal, DIDO1 (DIDO1) | Array Heatmap signal, DPF2 (PPC2W2) (DPF2 (PPC2W2)) | Array Heatmap signal, ING1 (ING1) | Array Heatmap signal, ING2 (ING2) | Array Heatmap signal, ING3 (ING3) | Array Heatmap signal, ING4 (ING4) | Array Heatmap signal, ING5 (ING5) | Array Heatmap signal, KDM4C (TTP) (KDM4C (TTP)) | Array Heatmap signal, KDM5A (1) (KDM5A (1)) | Array Heatmap signal, KDM5A (3) (KDM5A (3)) | Array Heatmap signal, KDM5B (1) (KDM5B (1)) | Array Heatmap signal, KDM5B (3) (KDM5B (3)) | Array Heatmap signal, KDM7A (KDM7A) | Array Heatmap signal, MLL5 (MLL5) | further results |
| --- | --- | --- | --- | --- | --- | --- | --- | --- | --- | --- | --- | --- | --- | --- | --- | --- | --- | --- | --- | --- | --- |
| H3R2me2s + K4me3 + K9ac + K14ac + K18ac: H3 1-20 | 0.3152 | 0.3825 | 0.2994 | 0.4966 | 0.6375 | 0.4157 | 0.6935 | 0.5621 | 0.5042 | 0.6168 | 0.3864 | 0.356 | 0.2654 | 0.3487 | 0.3527 | 0.5269 | 0.5889 | 0.4309 | 0.2957 | 0.5797 | Array Heatmap signal, MORC3 (CW) (MORC3 (CW)): 0.4658; Array Heatmap signal, PHF13 (PHF13): 0.4921; Array Heatmap signal, PHF21A (PHF21A): 0.377; Array Heatmap signal, PHF23 (PHF23): 0.5367; Array Heatmap signal, PHF2 (PHF2): 0.5721; Array Heatmap signal, PHF8 (PHF8): 0.402; Array Heatmap signal, PHRF1 (RP) (PHRF1 (RP)): 0.3639; Array Heatmap signal, RAG2 (RAG2): 0.309; Array Heatmap signal, SP140L (SP140L): 0.3075; Array Heatmap signal, TAF3 (TAF3): 0.2641; Array Heatmap signal, TRIM66 (PB) (TRIM66 (PB)): 0.4734 |
| H3R8me1 + K9me2: H3 1-20 | 0.4949 | 0.525 | 0.4109 | 0.7009 | 0.7992 | 0.658 | 0.8013 | 0.8023 | 0.6213 | 0.6201 | 0.5783 | 0.5352 | 0.4288 | 0.5659 | 0.5283 | 0.6031 | 0.696 | 0.5247 | 0.3959 | 0.5733 | Array Heatmap signal, MORC3 (CW) (MORC3 (CW)): 0.4736; Array Heatmap signal, PHF13 (PHF13): 0.7136; Array Heatmap signal, PHF21A (PHF21A): 0.4957; Array Heatmap signal, PHF23 (PHF23): 0.6046; Array Heatmap signal, PHF2 (PHF2): 0.6657; Array Heatmap signal, PHF8 (PHF8): 0.3836; Array Heatmap signal, PHRF1 (RP) (PHRF1 (RP)): 0.6787; Array Heatmap signal, RAG2 (RAG2): 0.302; Array Heatmap signal, SP140L (SP140L): 0.3989; Array Heatmap signal, TAF3 (TAF3): 0.3249; Array Heatmap signal, TRIM66 (PB) (TRIM66 (PB)): 0.6813 |
| H3R8me1: H3 1-20 [Peptide H3R8me1] | 0.5084 | 0.4447 | 0.34 | 0.56 | 0.7411 | 0.5449 | 0.6306 | 0.6736 | 0.4918 | 0.6007 | 0.4554 | 0.4481 | 0.3558 | 0.4945 | 0.4661 | 0.5111 | 0.6779 | 0.4843 | 0.3359 | 0.5181 | Array Heatmap signal, MORC3 (CW) (MORC3 (CW)): 0.4492; Array Heatmap signal, PHF13 (PHF13): 0.597; Array Heatmap signal, PHF21A (PHF21A): 0.4425; Array Heatmap signal, PHF23 (PHF23): 0.5397; Array Heatmap signal, PHF2 (PHF2): 0.4833; Array Heatmap signal, PHF8 (PHF8): 0.3354; Array Heatmap signal, PHRF1 (RP) (PHRF1 (RP)): 0.6379; Array Heatmap signal, RAG2 (RAG2): 0.2447; Array Heatmap signal, SP140L (SP140L): 0.3587; Array Heatmap signal, TAF3 (TAF3): 0.2594; Array Heatmap signal, TRIM66 (PB) (TRIM66 (PB)): 0.5513 |
